Assay results taken from the NIST ThermoML archive (doi:10.1021/acs.jced.8b01095).

Key:
[1] = Liquid; for viscosity: 2 kPa, Falling or rolling sphere viscometry; for speed of sound / mass density: 100 kPa; for speed of sound: Single path-length method; for mass density: Vibrating tube method
[2] = molar heat capacity at constant pressure; conditions: 100 kPa, Liquid, Extra sensitive DSC
[3] = xn = mol fraction of the nth substance listed; conditions: Liquid, x1 = 1; for viscosity: 2 kPa, Falling or rolling sphere viscometry; for speed of sound / mass density: 100 kPa; for speed of sound: Single path-length method; for mass density: Vibrating tube method

CCCC[n+]1ccn(C)c1.O=S(=O)([N-]S(=O)(=O)C(F)(F)F)C(F)(F)F
Conditions	mass density, [1] [kg/m3]	molar heat capacity at constant pressure, [2] [J/K/mol]	speed of sound, [1] [m/s]	viscosity, [1] [mPa·s]
298.15 K	1436.62	567.22	1227.9	49.24
303.15 K	1431.8	569.85	1216.8	40
308.15 K	1426.98	572.64	1205.8	33.02
313.15 K	1422.16	575.47	1195	27.66
318.15 K	1417.34	578.38	1184.2	23.47
323.15 K	1412.52	581.52	1173.6	20.15

CCCC[n+]1ccn(C)c1.O=S(=O)([N-]S(=O)(=O)C(F)(F)F)C(F)(F)F + CNc1ccccc1
[3]
Conditions	mass density [kg/m3]	speed of sound [m/s]	viscosity [mPa·s]
298.15 K	1436.62	1227.9	49.24
303.15 K	1431.8	1216.8	40
308.15 K	1426.98	1205.8	33.02
313.15 K	1422.16	1195	27.66
318.15 K	1417.34	1184.2	23.47
323.15 K	1412.52	1173.6	20.15

CCCCn1cc[n+](C)c1.F[P-](F)(F)(F)(F)F [1-butyl-3-methylimidazolium hexafluorophosphate]
Conditions	mass density, [1] [kg/m3]	molar heat capacity at constant pressure, [2] [J/K/mol]	speed of sound, [1] [m/s]	viscosity, [1] [mPa·s]
298.15 K	1367.24	407.08	1443.7	272.86
303.15 K	1363.08	410.01	1431.9	204.1
308.15 K	1358.91	412.77	1420.1	155.7
313.15 K	1354.74	415.44	1408.5	120.9
318.15 K	1350.58	418.26	1397.1	95.39
323.15 K	1346.41	421.21	1385.9	76.37

CCCCn1cc[n+](C)c1.F[P-](F)(F)(F)(F)F [1-butyl-3-methylimidazolium hexafluorophosphate] + CNc1ccccc1
[3]
Conditions	mass density [kg/m3]	speed of sound [m/s]	viscosity [mPa·s]
298.15 K	1367.24	1443.7	272.86
303.15 K	1363.08	1431.9	204.1
308.15 K	1358.91	1420.1	155.7
313.15 K	1354.74	1408.5	120.9
318.15 K	1350.58	1397.1	95.39
323.15 K	1346.41	1385.9	76.37

CNc1ccccc1 [N-methylaniline]
Conditions	mass density, [1] [kg/m3]	molar heat capacity at constant pressure, [2] [J/K/mol]	speed of sound, [1] [m/s]	viscosity, [1] [mPa·s]
298.15 K	982.7	207.12	1564.5	1.94
303.15 K	978.59	210.92	1546.1	1.73
308.15 K	974.47	214.73	1528.3	1.55
313.15 K	970.36	218.53	1511.5	1.4
318.15 K	966.24	222.37	1492.8	1.27
323.15 K	962.13	225.88	1476.2	1.16
